The text below walks through data of BindingDB's records for doi:10.3109/14756366.2011.604852 (Erzincan University, 2012).

The structures appear in SMILES notation.

Assay [1] has as its target Carbonic anhydrase 1 (Homo sapiens, UniProt P00915). In words: Esterase Activity Assay. The following applies: pH 7.4; 25 °C. The procedure: (§1) CA activity was assayed according to method of Verpoorte et al. [Verpoorte et al., J. Biol. Chem., 242:4221-4229] described previously by Innocenti et al. [Innocenti et al., Bioorg. Med. Chem., 18:2159-2164; Innocenti et al., Bioorg. Med. Chem. Lett., 20:5050-5053] CA activity was determined by following thechange in absorbance at 348 nm of 4-nitrophenylacetate (NPA) to 4-nitrophenylate ion over a period of 3 min at 25°C using a spectrophotometer (CHEBIOS UV-VIS). The enzymatic reaction, in a total volume of 3.0 mL, contained 1.4 mL 0.05 M Tris-SO4 buffer (pH 7.4), 1 mL, 3 mM 4-nitrophenylacetate, 0.5 mL H2O and 0.1 mL enzyme solution. A reference measurement was obtained by preparing the same cuvette without enzyme solution. The inhibitory effects of ampicillin sulfate, ceftriaxone, ceftizoxime, ranitidine were examined. All compounds were tested in triplicate at each concentration used. Different inhibitor concentrations were used. HCA-I enzyme activities were measured for ceftriaxone (0.003-0.033 mM), ceftizoxime (0.017-0.096 mM), ranitidine (0.026-0.053 mM) at cuvette concentrations and HCAII enzyme activities were measured for ampicillin sulfate (0.038-0.095 mM), ceftriaxone (0.003-0.021 mM), ceftizoxime (0.026-0.061 mM) and ranitidine (0.032-0.058 mM) at cuvette concentrations.

The target of assay [2] is Carbonic anhydrase 2 (Homo sapiens, UniProt P00918). In words: Esterase Activity Assay. To be noted: pH 7.4; 25 °C. The procedure: as §1

Sequence of Carbonic anhydrase 1 (P00915 whole entry): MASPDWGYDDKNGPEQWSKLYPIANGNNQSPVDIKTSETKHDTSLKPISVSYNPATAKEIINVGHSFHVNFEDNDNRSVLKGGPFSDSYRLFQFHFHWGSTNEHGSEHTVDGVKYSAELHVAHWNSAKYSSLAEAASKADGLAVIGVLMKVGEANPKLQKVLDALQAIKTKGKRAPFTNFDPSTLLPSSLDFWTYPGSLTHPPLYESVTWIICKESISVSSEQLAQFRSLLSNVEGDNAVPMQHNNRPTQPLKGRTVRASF

In assay [1], `CO/N=C(\C(=O)N[C@@H]1C(=O)N2C(C(=O)O)=C(CSc3nc(=O)c(=O)[nH]n3C)CS[C@H]12)c1csc(N)n1` [(6R,7R)-7-{2-(2-Amino-thiazol-4-yl)-2-[(Z)-methoxyimino]-acetylamino}-3-(2-methyl-5,6-dioxo-1,2,5,6-tetrahydro-[1,2,4]triazin-3-ylsulfanylmethyl)-8-oxo-5-thia-1-aza-bicyclo[4.2.0]oct-2-ene-2-carboxylic acid] gave an IC50 of 27.1 µM and a Ki of 28.5 µM. In assay [2], this compound gave an IC50 of 21 µM and an inhibitory constant (Ki) of 15.8 µM.
Regarding `CC1(C)S[C@@H]2[C@H](NC(=O)[C@H](N)c3ccccc3)C(=O)N2[C@H]1C(=O)O` [AY-6108], in assay [2], 56.8 µM corresponded to half-maximal inhibition (IC50) and the inhibition constant (Ki) worked out at 83 µM.
For the compound `CO/N=C(\C(=O)N[C@@H]1C(=O)N2C(C(=O)O)=CCS[C@H]12)c1csc(N)n1` [Ceftizoxime], in assay [1], the 50% inhibitory concentration (IC50) was found to be 79.4 µM and affinity was put at a Ki of 86.1 µM. In assay [2], the half-inhibitory concentration (IC50) is 79.1 µM and affinity was put at a Ki of 51.8 µM.
Consider `CN/C(=C\[N+](=O)[O-])NCCSCc1ccc(CN(C)C)o1` [Ranitidine], for which, in assay [1], the IC50 stood at 55.5 µM and affinity was put at a Ki of 54.7 µM. In assay [2], this compound returned an IC50 of 66.1 µM and a Ki of 29.7 µM.
